The values that follow come from paper PMC10363480 (Plant Communications, 2023).

For the first experiment, the system named is mitochondria or chloroplast of Chlamydomonas reinhardtii. As to the kind of experiment: Subcellular localization of Venus reporter by epifluorescence microscopy (manual targeting assignment). The experiment is classed as cell-based. To be noted: C-terminal element of RCA1-cTP added to the named peptide; Figure 2 rows E and F; bare name = K and R versions. The text has this: In a bid to keep peptidase recognition sites intact, C-terminal elements were designed to start 10 residues upstream of the cleavage site, even though this slightly truncates TP helices. Peptides carrying the 15-amino-acid cTP N-terminus (cTP-N) will be denoted ^cP. Similarly, peptides with C-terminal elements from RCA1-cTP (cTP-C) or CAG2-mTP (mTP-C) will be denoted P^c or P^m, respectively. Peptide variants are used to drive the subcellular localization of a Venus fluorescent reporter protein, which was assessed using fluorescence microscopy; in Figure 2, an executive overview of observed Venus localization is presented for all constructs. […] Here, we use automated image segmentation to validate our subcellular localization assessment (Supplemental Figure 2, Supplemental text). […] The reader will be asked to return to Figure 2 throughout, with Figures 3 and 4 providing selected micrographs as examples highlighting particular points of interest.
Chlamydomonas TP sequences were amplified from genomic DNA extracted from strain T222+ (CC-5101). Templates for codon-optimized HA-RAMP, RP, and R→K modified TP sequences were obtained by gene synthesis (Eurofins Genomics). Correct assembly was verified by sequencing (Eurofins Genomics). Linear transformation cassettes were generated through restriction digestion with EcoRV (New England Biolabs).
Constructs were transformed into wild-type strain T222+ (CC-5101) using a protocol described previously ([Onishi and Pringle, 2016]), except using 4 μl of DNA at 2 μg/μl.
Strains with suspected mitochondrial targeting were treated with 0.1 μM MitoTracker Red CMXRos (Thermo Fisher Scientific) in growth medium for 30 min in the dark and washed with TAP prior to taking images.
Legend for Fig. S3 – S20. Three independent transformant lines (Strains 1-3) are shown for each combination of modifications (A-L), represented by a cartoon and a shorthand description (cf. Fig.
2). Where a construct was interpreted as generating reporter localization in mitochondria or […]
Epifluorescence microscopy images of typical cells for each strain are shown. MitoTracker fluorescence, false-coloured in cyan, indicates the position of mitochondria (although parts of the cell exterior are sometimes also stained). False-coloured yellow fluorescence from the Venus channel reports on the subcellular localization of the fluorescent reporter. Chlorophyll autofluorescence, shown in magenta, indicates the location of the chloroplast. Scale bars are 5µm. Brightness (Br.) was adjusted for clarity: fluorescence intensity values were restricted to the range shown for each channel by matching coloured rectangles. Intensity scales to 0 at the bottom of the panel, and to 65535 at the top.
On the right-hand side, quantitative information associated with each construct is shown. Data was normalized such that averages range from 0 to 1 across all constructs (cf. Fig S2). Individual cell measurements may exceed this range; for clarity, the range shown here is limited to -0.5 to 1.5, with outliers that have more extreme values shown as lying beyond a dashed line. Strain 1 is plotted as circles, strain 2 as squares, and strain 3 as diamonds. Venus: Fluorescence plate reader data of transformants screened for this construct (Venus fluorescence, accounting for cell density using linear regression of OD750 and chlorophyll fluorescence trained on ‘no venus’ control transformants). Transformants that were not selected after screening are shown as small grey circles. A colour code ranging from white (low Venus fluorescence) to black (high Venus fluorescence) is used for strains 1-3 and the average thereof. Automated image quantification data: pyr/chl: Venus channel signal in the pyrenoid relative to in the chlorophyll region; mt/cell: Venus channel signal in mitochondria relative to the whole cell. Each point corresponds to a single cell.
The colour code code is the same as that below distributions in Fig. S2, i.e. blue highlights the […]
With “VNYGNGVSCSKTKCSVNWGIITHQAFRVTSGVASG [B15, bacillocin 1580, HA-RAMP antimicrobial peptide, reference compound]”, the “chloroplast targeting upon addition of cTP-C (P^c)” value is “enabled chloroplast targeting”.

The same experiment, now with this note: Figure 2; bare name = K and R versions.
As to “GLFSKFNKKKIKSGLIKIIKTAGKEAGLEALRTGIDVIGCKIKGEC [E1S, esculentin-1SEA, HA-RAMP antimicrobial peptide, reference compound]”, the “targeting when combining cTP-N with mTP-C (^cP^m)” value is “chloroplast targeting”.

On to “VNYGNGVSCSKTKCSVNWGIITHQAFRVTSGVASG [B15, bacillocin 1580, HA-RAMP antimicrobial peptide, reference compound]”, for which the “targeting when combining cTP-N with mTP-C (^cP^m)” value is reported as “chloroplast targeting”.

The same experiment, now with this note: manual targeting assignment of the Venus reporter construct in Chlamydomonas: Neither / Mitochondria / Chloroplast / Dual, (partial) = partial targeting.
In the case of MGGARVATR [CH.R], the Localisation result was “Neither”.

As for “MDEVNNDNCRIRFRGDISSESDRMNINYSVRRAQLQVVASSRKQMGRWRSIDAGVDASDDQ [RP2.R.c]”, the Localisation entry is listed as “Neither”. Still for that read-out and setting: next, “MDEVNNDNCRIRFRGDISSESDRMNINYLTQTAESFRGVSSQFFDAPNGPSVKQVLIEDEW [RP2.R.m]”: “Neither”. Turning to “MQVTMKSSAVSGQRVRYYGNGVSCNRRGCSVDWGRAIGIIGNNAAANLTTGGRAGWRGLTQTAESFRGVSSQFFDAPNGPSVKQVLIEDEW [c.EHF.R.m]”, the Localisation result is “Chloroplast”.

For “MGGAKVATKLTQTAESFRGVSSQFFDAPNGPSVKQVLIEDEW [CH.K.m]”, the Localisation result was “Neither”. “MQVTMKSSAVSGQRVALWRTMLRRLGTMALHAGRAAFGAAADTISQLTQTAESFRGVSSQFFDAPNGPSVKQVLIEDEW [c.DDM.R.m]”: the Localisation result was “Neither”. Regarding “MGWIRDFGRRIERVGQHTRDATIQTIAVAQQAANVAATLRGSVRRAQLQVVASSRKQMGRWRSIDAGVDASDDQ [S1D.R.c]”, the Localisation entry was “Chloroplast (partial)”. With “MQVTMKSSAVSGQRVALWRTMLRRLGTMALHAGRAAFGAAADTISQ [c.DDM.R]”, the Localisation entry is “Mitochondria (partial)”. For the sequence “MGRIPVRAIRRAGAAIGRGLRAINIASTAHDVYSFFRPRHRRRSVRRAQLQVVASSRKQMGRWRSIDAGVDASDDQ [SIM.R.c]”, the Localisation result is “Neither”. Take “MQVTMKSSAVSGQRVGGARVATRSVRRAQLQVVASSRKQMGRWRSIDAGVDASDDQ [c.CH.R.c]”: the Localisation entry is listed as “Chloroplast”. Take “MQVTMKSSAVSGQRVGRIPVRAIRRAGAAIGRGLRAINIASTAHDVYSFFRPRHRRR [c.SIM.R]”: the Localisation entry is on record as “Chloroplast”. In the case of “MALWRTMLRRLGTMALHAGRAAFGAAADTISQ [DDM.R]”, the Localisation entry is recorded as “Neither”. Take “MSFLTTFRDLAIRAARSAGQSVLSTLSCRLSNTCLTQTAESFRGVSSQFFDAPNGPSVKQVLIEDEW [B2I.R.m]”: the Localisation result is recorded as “Mitochondria”. In the case of “MQVTMKSSAVSGQRVMLKRVGQSLVPFARAG [c.MH.R]”, the Localisation result was “Neither”. Take “MQVTMKSSAVSGQRVMGLLLDTLRGAARDIAGIALERLRCRITGCRP [c.R2G.R]”: the Localisation result is given as “Mitochondria”. The same measure, in the same setting: next, “MSFLTTFRDLAIRAARSAGQSVLSTLSCRLSNTCSVRRAQLQVVASSRKQMGRWRSIDAGVDASDDQ [B2I.R.c]”: “Mitochondria”; “MQVTMKSSAVSGQRVMGLLLDTLRGAARDIAGIALERLRCRITGCRPLTQTAESFRGVSSQFFDAPNGPSVKQVLIEDEW [c.R2G.R.m]”: “Mitochondria”.

Take “MQVTMKSSAVSGQRVDEVNNDNCRIRFRGDISSESDRMNINY [c.RP2.R]”: the Localisation result is reported as “Neither”.

The experiment is the same for the next values; noted with them: peptide-Venus reporter construct expressed in Chlamydomonas reinhardtii; manual targeting assignment (Neither / Mitochondria / Chloroplast / Dual; partial = partial targeting).
Turning to “MQVTMKSSAVSGQRVFLPLLAGLAANFLPKIFCKITRKCSVRRAQLQVVASSRKQMGRWRSIDAGVDASDDQ [c.B1E.K.c]”, the Localisation entry is recorded as “Chloroplast”. As to “MVNYGNGVSCSRTRCSVNWGIITHQAFRVTSGVASGSVRRAQLQVVASSRKQMGRWRSIDAGVDASDDQ [B15.R.c]”, the Localisation entry is recorded as “Chloroplast”. In the case of “MGLFSRFNRRRIRSGLIRIIRTAGREAGLEALRTGIDVIGCRIRGEC [E1S.R]”, the Localisation result was “Neither”.

For the sequence “MALWMTLLKKVLKAAAKAALNAVLVGANASVRRAQLQVVASSRKQMGRWRSIDAGVDASDDQ [DS4.K.c]”, the Localisation result is given as “Neither”.

With “MGIGKFLHSAKKFGKAFVGEIMNSSVRRAQLQVVASSRKQMGRWRSIDAGVDASDDQ [MII.K.c]”, the Localisation entry is “Mitochondria”. As for “MFLPLLAGLAANFLPRIFCRITRRCSVRRAQLQVVASSRKQMGRWRSIDAGVDASDDQ [B1E.R.c]”, the Localisation entry is recorded as “Neither”.

“MGIGRFLHSARRFGRAFVGEIMNSLTQTAESFRGVSSQFFDAPNGPSVKQVLIEDEW [MII.R.m]”: the Localisation entry is listed as “Mitochondria (partial)”.

As to “MQVTMKSSAVSGQRVALWMTLLKKVLKAAAKAALNAVLVGANALTQTAESFRGVSSQFFDAPNGPSVKQVLIEDEW [c.DS4.K.m]”, the Localisation result is on record as “Neither”. Regarding “MVNYGNGVSCSKTKCSVNWGIITHQAFRVTSGVASGSVRRAQLQVVASSRKQMGRWRSIDAGVDASDDQ [B15.K.c]”, the Localisation entry is reported as “Chloroplast”. Take “MKYYGNGVHCTRSGCSVNWGEAFSAGVHRLANGGNGFWLTQTAESFRGVSSQFFDAPNGPSVKQVLIEDEW [LCA.R.m]”: the Localisation result is “Neither”.

With “MKYYGNGVHCTRSGCSVNWGEAFSAGVHRLANGGNGFW [LCA.R]”, the Localisation result is “Neither”. Take “MVNYGNGVSCSRTRCSVNWGIITHQAFRVTSGVASGLTQTAESFRGVSSQFFDAPNGPSVKQVLIEDEW [B15.R.m]”: the Localisation result is “Neither”. “MQVTMKSSAVSGQRVGIGKFLHSAKKFGKAFVGEIMNS [c.MII.K]”: the Localisation entry was “Mitochondria”. On the same count and under the same terms, as for “MVNYGNGVSCSRTRCSVNWGIITHQAFRVTSGVASG [B15.R]”, the entry is “Neither”; as for “MGLFSKFNKKKIKSGLIKIIKTAGKEAGLEALRTGIDVIGCKIKGEC [E1S.K]”, “Neither”. The same measure, in the same setting: as for “MQVTMKSSAVSGQRVMWLSRTARRLENSARRRISEGIAIAIRGGSRSVRRAQLQVVASSRKQMGRWRSIDAGVDASDDQ [c.CP3.R.c]”, the entry is “Chloroplast”.

The same experiment, now with this note: targeting of the Venus reporter fused to the peptide, expressed in Chlamydomonas reinhardtii; manual assignment from epifluorescence microscopy; full or partial.
On to “MALWKTMLKKLGTMALHAGKAAFGAAADTISQLTQTAESFRGVSSQFFDAPNGPSVKQVLIEDEW [DDM.K.m]”, for which the Localisation result is “Neither”. Consider “MQVTMKSSAVSGQRVNIVVYWNFTLWHMDINARNAGCDGEGS [c.RP1.K]”, for which the Localisation result is given as “Neither”. In the case of “MGLLLDTLKGAAKDIAGIALEKLKCKITGCKPLTQTAESFRGVSSQFFDAPNGPSVKQVLIEDEW [R2G.K.m]”, the Localisation result is reported as “Mitochondria (partial)”.

Turning to “MQVTMKSSAVSGQRVMKYYGNGVSCNKKGCSVDWGKAIGIIGNNAAANLTTGGKAGWKGSVRRAQLQVVASSRKQMGRWRSIDAGVDASDDQ [c.EHF.K.c]”, the Localisation result is reported as “Chloroplast”.

As for “MQVTMKSSAVSGQRVDEVNNDNCRIKFKGDISSESDKMNINYLTQTAESFRGVSSQFFDAPNGPSVKQVLIEDEW [c.RP2.K.m]”, the Localisation result was “Neither”.

Take “MQVTMKSSAVSGQRVMSFLTTFKDLAIKAAKSAGQSVLSTLSCKLSNTCLTQTAESFRGVSSQFFDAPNGPSVKQVLIEDEW [c.B2I.K.m]”: the Localisation result is reported as “Mitochondria”.

“MQVTMKSSAVSGQRVMGLFSKFNKKKIKSGLIKIIKTAGKEAGLEALRTGIDVIGCKIKGECLTQTAESFRGVSSQFFDAPNGPSVKQVLIEDEW [c.E1S.K.m]”: the Localisation entry is “Chloroplast”. Take “MNIVVYWNFTLWHMDINARNAGCDGEGSSVRRAQLQVVASSRKQMGRWRSIDAGVDASDDQ [RP1.K.c]”: the Localisation entry is listed as “Neither”.

“MGKIPVKAIKKAGAAIGKGLRAINIASTAHDVYSFFKPKHKKKLTQTAESFRGVSSQFFDAPNGPSVKQVLIEDEW [SIM.K.m]”: the Localisation entry is “Neither”. Take “MGKIPVKAIKKAGAAIGKGLRAINIASTAHDVYSFFKPKHKKK [SIM.K]”: the Localisation result is reported as “Neither”. Regarding MQVTMKSSAVSGQRV [c.-], the Localisation result is given as “Neither”.
